Assay results: patent US10758513B2, “Modulators of mitochondrial protein import” (THE REGENTS OF THE UNIVERSITY OF CALIFORNIA, priority 2011, dated 2020)
Entries after “also recorded” stand apart in the source; their conditions may differ.

Legend:
[1] = test system: Tim9-Tim10 complex; test: Crosslinking and immunoprecipitation of AAC with Tim9; assay type: biochemical, yeast; settings: 25 μM MitoBloCK-1; BMH crosslinker
Method: Crosslinking and immunoprecipitation experiments were derived from procedures previously utilized (3) with the inclusion of MitoBloCK-1 or DMSO. Following import, a portion of the reaction was subjected to crosslinking with 0.5 mM bis-maleimidohexane (BMH) for 30 minutes on ice. After quenching crosslinking reactions with 1 mM β-mercaptoethanol, a fraction of each sample was subjected to immunoprecipitation with polyclonal antibodies against either Tim9, Tom22, or Tom40. For each immunoprecipitation, 20 μL of antisera was bound to […], of protein A-sepharose slurry according to established protocols (Murphy M P, et al., (2001), Mol Cell Biol 21:6132-6138).

[2] = test system: WT mitochondria; test: In vitro import of AAC into wild-type mitochondria; assay type: biochemical, yeast
Method: Prior to import into purified mitochondria, ^35S-methionine and cysteine labeled proteins were generated with TNT Quick Coupled Transcription/Translation kits (Promega) and plasmids carrying the gene of interest. Transcription of genes was driven by either a T7 or SP6 promoter. Import reactions were conducted according to established methods. After frozen mitochondria aliquots were thawed and added to the import buffer at a final concentration of 100 μg/mL, drug or DMSO vehicle was added as indicated. A final vehicle concentration of 1% was used in all experiments. Following 15 minute incubation at 25° C., import reactions were initiated by the addition of […] of translation mix. Aliquots were removed at intervals during the reaction timecourse and import was terminated with either cold buffer, 25 μg/mL trypsin, or a combination of both. If trypsin was added to digest unimported precursor protein, soybean trypsin inhibitor (STI) was subsequently added in excess after 15 minute incubation on ice. After a final recovery of by centrifugation (8,000×g, 5 minutes), mitochondria were disrupted in Laemmli sample buffer. Imports of membrane proteins (AAC, PiC, Tom40, Tim22, and Tim23) included a carbonate extraction step to remove proteins that had not inserted into the membrane (Koehler C M, et al. (1998), Science 279:369-373). […]

NC(=S)N/N=C/c1c(O)c(Br)cc2oc3c(c12)CCCC3 [MitoBloCK-1]
crosslinked Tim9-AAC product after immunoprecipitation [1]: decreased | import of AAC into WT mitochondria [2]: did not inhibit import; also recorded: does not inhibit AAC import
